System: buccal mucosal membrane
Assay: Needle stab after applying the surface anesthetic agent to the buccal mucosal membrane: time for the painless effect to be exerted
Type: in vivo
Conditions: 200 mg applied with a cotton swab to the buccal mucosal membrane, then a needle stabbed
Experimental: Various surface anesthetic agents mentioned above were applied to the buccal mucosal membrane, and then a needle was stabbed, and the time for the painless effect to be exerted and the time for the pain to start again were measured.
(1) As a sample of tetracaine alone, 200 mg (12 mg tetracaine) COPALON was attached to a cotton swab, and applied to the buccal mucosal membrane.
(2) As a sample of lidocaine alone, 200 mg Xylocaine jelly (4 mg lidocaine) was attached to a cotton swab, and applied to the buccal mucosal membrane.
(3) As a sample of a combination use of tetracaine and lidocaine, various mixtures of tetracaine and lidocaine in 92:8, 82:18, 67:33 and 43:57 mass ratios were prepared by varying the blending ratio of COPALON and Xylocaine jelly to 80:20, 60:40, 40:60 and 20:80. 200 mg of each of the prepared mixtures was attached to a cotton swab, and applied to the buccal mucosal membrane. […]
Various surface anesthetic agents containing tetracaine and/or lidocaine mentioned above were applied to the buccal mucosal membrane, and then a needle was stabbed, and the time for the painless effect to be exerted and the time for the pain to start again were measured.

CCN(CC)CC(=O)Nc1c(C)cccc1C [Comparative Example 1-2, 2-(diethylamino)-N-(2,6-dimethylphenyl) acetamide]
time for the painless effect to be exerted after the application: 5 min

From US9107876B2, “Surface anesthetic agent” (YAMAGUCHI UNIVERSITY, priority 2009, dated 2015)
